{"source": "ChEMBL document CHEMBL1126233", "about": "“Derivatives of naphthalimide: new potent conformationally restricted antagonists of 5-HT3 receptors” (Bioorg Med Chem Lett, 1992)", "key": {"[1]": {"target": "T1, Serotonin 3 (5-HT3) receptor (Rattus norvegicus, UniProt P35563+Q9JJ16)", "T1 sequence (P35563 whole entry)": "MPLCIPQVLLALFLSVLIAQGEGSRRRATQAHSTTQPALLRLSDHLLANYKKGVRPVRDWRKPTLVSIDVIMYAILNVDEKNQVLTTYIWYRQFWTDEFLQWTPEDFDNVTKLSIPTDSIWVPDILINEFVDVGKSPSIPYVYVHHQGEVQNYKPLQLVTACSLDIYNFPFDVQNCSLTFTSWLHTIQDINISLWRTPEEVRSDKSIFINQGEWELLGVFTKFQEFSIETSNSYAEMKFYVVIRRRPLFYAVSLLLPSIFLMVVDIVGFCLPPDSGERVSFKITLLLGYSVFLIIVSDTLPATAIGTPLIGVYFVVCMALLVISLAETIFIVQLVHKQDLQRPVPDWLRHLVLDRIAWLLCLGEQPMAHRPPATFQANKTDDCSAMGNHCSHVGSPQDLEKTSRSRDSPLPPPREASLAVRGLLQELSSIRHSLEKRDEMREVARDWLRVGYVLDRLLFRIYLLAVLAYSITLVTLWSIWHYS", "T1 sequence (Q9JJ16 whole entry)": "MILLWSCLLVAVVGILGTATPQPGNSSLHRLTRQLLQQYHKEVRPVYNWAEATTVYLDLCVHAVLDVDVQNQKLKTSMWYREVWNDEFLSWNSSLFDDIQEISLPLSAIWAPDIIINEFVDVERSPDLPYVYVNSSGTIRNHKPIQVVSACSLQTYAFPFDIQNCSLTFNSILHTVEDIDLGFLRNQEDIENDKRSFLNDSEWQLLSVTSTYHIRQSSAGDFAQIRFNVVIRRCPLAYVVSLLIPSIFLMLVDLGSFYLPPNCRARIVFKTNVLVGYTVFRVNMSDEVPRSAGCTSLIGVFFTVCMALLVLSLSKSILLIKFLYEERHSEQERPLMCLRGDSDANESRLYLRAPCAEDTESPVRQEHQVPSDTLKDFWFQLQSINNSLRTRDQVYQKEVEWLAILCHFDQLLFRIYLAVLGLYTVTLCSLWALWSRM", "assay": "Binding affinity at 5-hydroxytryptamine 3 receptor in rat posterior cortex by [3H]-BRL 43694 displacement.", "format": "tissue-based, Brain"}, "Rattus norvegicus [2]": {"tested_on": "Rattus norvegicus", "assay": "Antagonism of the bradycardia induced by iv injection of 5-HT(10-30 ug/kg) was evaluated by the compound administration in rat; 0.05-0.75", "format": "functional", "settings": "read-out: ID50 (the source's name)"}, "Rattus norvegicus [3]": {"tested_on": "Rattus norvegicus", "assay": "Antagonism of the bradycardia induced by iv injection of 5-HT(10-30 ug/kg) was evaluated by the compound administration in rat; 2.5-3.9", "format": "functional", "settings": "read-out: ID50 (the source's name)"}, "Rattus norvegicus [4]": {"tested_on": "Rattus norvegicus", "assay": "Antagonism of the bradycardia induced by iv injection of 5-HT(10-30 ug/kg) was evaluated by the compound administration in rat; 0.7-3.6", "format": "functional", "settings": "read-out: ID50 (the source's name)"}, "Rattus norvegicus [5]": {"tested_on": "Rattus norvegicus", "assay": "Antagonism of the bradycardia induced by iv injection of 5-HT(10-30 ug/kg) was evaluated by the compound administration in rat; 3-8", "format": "functional", "settings": "read-out: ID50 (the source's name)"}, "Rattus norvegicus [6]": {"tested_on": "Rattus norvegicus", "assay": "Antagonism of the bradycardia induced by iv injection of 5-HT(10-30 ug/kg) was evaluated by the compound administration in rat; 8-55", "format": "functional", "settings": "read-out: ID50 (the source's name)"}, "Rattus norvegicus [7]": {"tested_on": "Rattus norvegicus", "assay": "Antagonism of the bradycardia induced by iv injection of 5-HT(10-30 ug/kg) was evaluated by the compound administration in rat; 3.8-8.7", "format": "functional", "settings": "read-out: ID50 (the source's name)"}, "Rattus norvegicus [8]": {"tested_on": "Rattus norvegicus", "assay": "Antagonism of the bradycardia induced by iv injection of 5-HT(10-30 ug/kg) was evaluated by the compound administration in rat; 1.7-74", "format": "functional", "settings": "read-out: ID50 (the source's name)"}, "Rattus norvegicus [9]": {"tested_on": "Rattus norvegicus", "assay": "Antagonism of the bradycardia induced by iv injection of 5-HT(10-30 ug/kg) was evaluated by the compound administration in rat", "format": "functional", "settings": "read-out: ID50 (the source's name)"}, "Rattus norvegicus [10]": {"tested_on": "Rattus norvegicus", "assay": "Antagonism of the bradycardia induced by iv injection of 5-HT(10-30 ug/kg) was evaluated by the compound administration in rat; 81-615", "format": "functional", "settings": "read-out: ID50 (the source's name)"}, "Rattus norvegicus [11]": {"tested_on": "Rattus norvegicus", "assay": "Antagonism of the bradycardia induced by iv injection of 5-HT(10-30 ug/kg) was evaluated by the compound administration in rat; 12-55", "format": "functional", "settings": "read-out: ID50 (the source's name)"}, "Rattus norvegicus [12]": {"tested_on": "Rattus norvegicus", "assay": "Antagonism of the bradycardia induced by iv injection of 5-HT(10-30 ug/kg) was evaluated by the compound administration in rat; 52-205", "format": "functional", "settings": "read-out: ID50 (the source's name)"}, "Rattus norvegicus [13]": {"tested_on": "Rattus norvegicus", "assay": "Antagonism of the bradycardia induced by iv injection of 5-HT(10-30 ug/kg) was evaluated by the compound administration in rat; 82-190", "format": "functional", "settings": "read-out: ID50 (the source's name)"}, "Rattus norvegicus [14]": {"tested_on": "Rattus norvegicus", "assay": "Antagonism of the bradycardia induced by iv injection of 5-HT(10-30 ug/kg) was evaluated by the compound administration in rat; 0.3-3.4", "format": "functional", "settings": "read-out: ID50 (the source's name)"}}, "data": [{"smiles": "COc1cc(N)c(Cl)cc1C(=O)N[C@@H]1CN2CCC1CC2", "values": [{"measurement": "Ki", "setting": "[1]", "result": 0.2, "unit": "nM"}, {"measurement": "ED50", "setting": "Rattus norvegicus [2]", "result": 0.0002, "unit": "mg/kg"}]}, {"smiles": "Nc1ccc2c3c(cccc13)C(=O)N(C1CN3CCC1CC3)C2=O", "note": "(centres undefined)", "values": [{"measurement": "Ki", "setting": "[1]", "result": 0.5, "unit": "nM"}, {"measurement": "ED50", "setting": "Rattus norvegicus [3]", "result": 0.003, "unit": "mg/kg"}]}, {"smiles": "Nc1ccc2c3c(cccc13)C(=O)N([C@H]1CN3CCC1CC3)C2=O", "values": [{"measurement": "Ki", "setting": "[1]", "result": 0.15, "unit": "nM"}, {"measurement": "ED50", "setting": "Rattus norvegicus [4]", "result": 0.0016, "unit": "mg/kg"}]}, {"smiles": "O=C1c2cccc3c([N+](=O)[O-])ccc(c23)C(=O)N1C1CN2CCC1CC2", "note": "(centres undefined)", "values": [{"measurement": "Ki", "setting": "[1]", "result": 31, "unit": "nM"}, {"measurement": "ED50", "setting": "Rattus norvegicus [5]", "result": 0.00525, "unit": "mg/kg"}]}, {"smiles": "Nc1ccc2c3c(cccc13)C(=O)N([C@@H]1CN3CCC1CC3)C2=O", "values": [{"measurement": "Ki", "setting": "[1]", "result": 23.5, "unit": "nM"}, {"measurement": "ED50", "setting": "Rattus norvegicus [6]", "result": 0.021, "unit": "mg/kg"}]}, {"smiles": "O=C1c2cccc3cccc(c23)C(=O)N1[C@H]1CN2CCC1CC2", "values": [{"measurement": "Ki", "setting": "[1]", "result": 0.9, "unit": "nM"}, {"measurement": "ED50", "setting": "Rattus norvegicus [7]", "result": 0.0057, "unit": "mg/kg"}]}, {"smiles": "O=C1c2cccc3cccc(c23)C(=O)N1C1CN2CCC1CC2", "note": "(centres undefined)", "values": [{"measurement": "Ki", "setting": "[1]", "result": 2.7, "unit": "nM"}, {"measurement": "ED50", "setting": "Rattus norvegicus [8]", "result": 0.011, "unit": "mg/kg"}]}, {"smiles": "O=C1c2cccc3c(Br)ccc(c23)C(=O)N1C1CN2CCC1CC2", "note": "(centres undefined)", "values": [{"measurement": "Ki", "setting": "[1]", "result": 41, "unit": "nM"}, {"measurement": "ED50", "setting": "Rattus norvegicus [9]", "result": "> 0.25", "unit": "mg/kg"}]}, {"smiles": "O=C1c2cccc3cccc(c23)CN1[C@H]1CN2CCC1CC2", "values": [{"measurement": "Ki", "setting": "[1]", "result": 2.3, "unit": "nM"}]}, {"smiles": "O=C1c2cccc3cccc(c23)C(=O)N1[C@@H]1CN2CCC1CC2", "values": [{"measurement": "Ki", "setting": "[1]", "result": 61, "unit": "nM"}, {"measurement": "ED50", "setting": "Rattus norvegicus [10]", "result": 0.224, "unit": "mg/kg"}]}, {"smiles": "O=C1c2cccc3cccc(c23)CN1[C@@H]1CN2CCC1CC2", "values": [{"measurement": "Ki", "setting": "[1]", "result": 2.2, "unit": "nM"}]}, {"smiles": "COc1ccccc1C(=O)NC1CN2CCC1CC2", "note": "(centres undefined)", "values": [{"measurement": "Ki", "setting": "[1]", "result": 22, "unit": "nM"}, {"measurement": "ED50", "setting": "Rattus norvegicus [11]", "result": 0.025, "unit": "mg/kg"}]}, {"smiles": "O=c1[nH]c2ccccc2c(=O)n1C1CN2CCC1CC2", "note": "(centres undefined)", "values": [{"measurement": "Ki", "setting": "[1]", "result": 80, "unit": "nM"}, {"measurement": "ED50", "setting": "Rattus norvegicus [12]", "result": 0.103, "unit": "mg/kg"}]}, {"smiles": "O=C1c2cccc3c(Cl)ccc(c23)C(=O)N1C1CN2CCC1CC2", "note": "(centres undefined)", "values": [{"measurement": "Ki", "setting": "[1]", "result": 14, "unit": "nM"}, {"measurement": "ED50", "setting": "Rattus norvegicus [13]", "result": 0.125, "unit": "mg/kg"}]}, {"smiles": "CN1CCC(N2C(=O)c3cccc4cccc(c34)C2=O)CC1", "values": [{"measurement": "Ki", "setting": "[1]", "result": 15, "unit": "nM"}, {"measurement": "ED50", "setting": "Rattus norvegicus [9]", "result": 0.5, "unit": "mg/kg"}]}, {"smiles": "CN1C2CCC1CC(N1C(=O)c3cccc4cccc(c34)C1=O)C2", "note": "(centres undefined)", "values": [{"measurement": "Ki", "setting": "[1]", "result": 374, "unit": "nM"}, {"measurement": "ED50", "setting": "Rattus norvegicus [9]", "result": "> 0.25", "unit": "mg/kg"}]}, {"smiles": "COc1cc(N)c(Cl)cc1C(=O)N[C@H]1CN2CCC1CC2", "note": "[(R)ZACOPRIDE]", "values": [{"measurement": "Ki", "setting": "[1]", "result": 2.6, "unit": "nM"}, {"measurement": "ED50", "setting": "Rattus norvegicus [14]", "result": 0.001, "unit": "mg/kg"}]}, {"smiles": "O=c1[nH]c2ccc(Cl)cc2c(=O)n1C1CN2CCC1CC2", "note": "(centres undefined)", "values": [{"measurement": "Ki", "setting": "[1]", "result": 30, "unit": "nM"}, {"measurement": "ED50", "setting": "Rattus norvegicus [9]", "result": 0.08, "unit": "mg/kg"}]}]}
